Results reported in ChEMBL document CHEMBL1149006, “Isolation and characterization of a new triterpene from Iris missouriensis” (1986).
In brackets after ≈: the same amount, converted by molar mass.

Tested on: P388
Assay: Cytotoxicity against mouse P388 cells
Type: functional
Conditions: read-out: ED50 (the source's name)

SMILES | EC50
CC[C@H](/C=C/[C@@H](C)[C@H]1CC[C@H]2[C@@H]3[C@@H](O)C=C4C[C@@H](O)CC[C@]4(C)[C@H]3CC[C@]12C)C(C)C | 0.1 µg/mL (≈ 0.233 µM)
CC[C@H](CC[C@@H](C)[C@H]1CC[C@H]2[C@@H]3[C@@H](O)C=C4C[C@@H](O)CC[C@]4(C)[C@H]3CC[C@]12C)C(C)C | 0.2 µg/mL (≈ 0.464 µM)
